Data as given in patent US20020010210A1, “PHARMACEUTICAL PREPARATION AND METHOD FOR TREATING CANCER” (priority 1997, published 2002).
Where a name gives a salt, the structure may show the parent alone. Numbered stars: 1 amine (or outer) side, 2 acyl side, 3 side chain; on linkers, the order of the positions; unused ones are H or OH. Bridge positions count the residues as written; N and C are the ends. Square brackets hold non-standard residues; d marks the D form. Peptide text beside a SMILES is read from it. I, II: the chains in the order shown. Actinocin(9to1) = Cc1c2oc3c(C)ccc(C(=O)[*:1])c3nc-2c(C(=O)[*:2])c(N)c1=O; NMeV = CN[C@H](C(=O)O)C(C)C; Sar = CNCC(=O)O

Columns and labels:
[1] = system: spontaneous breast cancer rat cells (SST-2); assay: Lung metastasis of SST-2 in SHR rats, ascorbic acid derivative combined with known anticancer agent (Example 4); assay type: in vivo
Description: 1×100,000 spontaneous breast cancer rat cells (SST-2) were subcutaneously implanted into the back of a rat (SHR rat) (5 rats per group) suffering from spontaneous hypertension. After 35 days, the rats were sacrificed, and the number of colonies formed were measured to examine the degree of metastasis of SST-2 to the lung.
The ascorbic acid derivatives used were L-ascorbic acid-2-phosphate-6-palmitate, L-ascorbic acid-6-benzoate (reference compound) and magnesium L-ascorbic acid-2-phosphate.
Each of the groups treated with an ascorbic acid derivative was subjected to a test of administering the ascorbic acid derivative alone and to a test of administering the ascorbic acid derivative in combination with a known anticancer agent as shown in Table 4. Furthermore, tests of administering the anticancer agents alone were conducted. Over the period of from 7 days prior to implantation to 34 days after the implantation, the ascorbic acid derivative was injected through a vein in the tail region at a dose of 1 mg/1 day/rat. Each of the known anticancer agents was perorally administered in a minimum dose by reference to the concentration for a single use case described in the publication, Tyakuhin Yoran (Medical Product Handbook), 4th Edition, pp. 1474-1509, Yakugyo Jiho-Sha (1989), and the number of colonies formed after metastasis was compared.

[2] = system: spontaneous breast cancer rat cells (SST-2); assay: as above; assay type: in vivo; remark: listed apart in the source
[3] = ascorbic acid derivative 1 mg/1 day/rat tail vein, day -7 to day 34, known anticancer agent perorally in minimum dose, colonies after 35 days

SMILES | Cancer metastasis inhibitory effect of combination with L-Ascorbic Acid-2-Phosphate-6-Palmitate versus each agent alone [1, 3] | Cancer metastasis inhibitory effect of combination with L-Ascorbic Acid-2-Phosphate-6-Benzoate versus each agent alone [2, 3] | Cancer metastasis inhibitory effect of combination with L-Ascorbic Acid-6-Palmitate versus each agent alone [2, 3] | Cancer metastasis inhibitory effect of combination with L-Ascorbic Acid-2-Phosphate-6-Palmitate versus each agent alone ([1]; rat, in vivo) | Cancer metastasis inhibitory effect of combination with L-Ascorbic Acid-2-Phosphate-6-Benzoate versus each agent alone ([2]; rat, in vivo) | Cancer metastasis inhibitory effect of combination with L-Ascorbic Acid-6-Palmitate versus each agent alone ([2]; rat, in vivo)
N=c1ccn2c(n1)O[C@H]1[C@H](O)[C@@H](CO)O[C@H]12 [ANCITABINE hydrochloride] | + | + | − |  |  | 
COC(COC(N)=O)C1=C(N2CC2)C(=O)C(C)=C(N2CC2)C1=O (stereo not drawn) [CARBOCON] | + | + | − |  |  | 
C[C@]12CC[C@@H]3c4ccc(OC(=O)N(CCCl)CCCl)cc4CC[C@H]3[C@@H]1CC[C@@H]2OP(=O)(O)O [Estracyt (R)] | + | + | − |  |  | 
CC/C(=C(/CC)c1ccc(OP(=O)(O)O)cc1)c1ccc(OP(=O)(O)O)cc1 [HONPAN] | + | + | − |  |  | 
O[C@@H]([C@H](O)[C@H](O)CBr)[C@H](O)CBr [MITOPURNITOL] | + | + | − |  |  | 
CS(=O)(=O)OCCCNCCCOS(C)(=O)=O.Cc1ccc(S(=O)(=O)O)cc1 [Protecton (R)] | + | + | − |  |  | 
S=P(N1CC1)(N1CC1)N1CC1 [TIOTEBA] | + | + | − |  |  | 
CC(=O)O[C@@H]1C(=O)O[C@H]2[C@@H]1OC(=O)[C@@H]2OC(C)=O [aceglatone] | + | + | − |  |  | 
CC[C@@]1(O)C[C@H](O[C@H]2C[C@H](N(C)C)[C@H](O[C@H]3C[C@H](O)[C@H](O[C@H]4CCC(=O)[C@H](C)O4)[C@H](C)O3)[C@H](C)O2)c2c(cc3c(c2O)C(=O)c2c(O)cccc2C3=O)[C@H]1C(=O)OC [aclarubicin hydrochloride] |  |  |  | + | + | −
Cc1c2oc3c(C)ccc(C(=O)N[C@@H]4C(=O)N[C@H](C(C)C)C(=O)N5CCC[C@H]5C(=O)N(C)CC(=O)N(C)[C@@H](C(C)C)C(=O)O[C@@H]4C)c3nc-2c(C(=O)N[C@@H]2C(=O)N[C@H](C(C)C)C(=O)N3CCC[C@H]3C(=O)N(C)CC(=O)N(C)[C@@H](C(C)C)C(=O)O[C@@H]2C)c(N)c1=O [actinomycin (D)] (I: T[dV]P[Sar][NMeV] / II: T[dV]P[Sar][NMeV]; ester I:1-I:C, II:1-II:C; linker I:N-II:N via Actinocin(9to1)) |  |  |  | + | + | −
CS(=O)(=O)OCCCCOS(C)(=O)=O [bulsfan] |  |  |  | + | ± | −
CCCCCCNC(=O)n1cc(F)c(=O)[nH]c1=O [carmofur] | + | + | − |  |  | 
CO[C@@H]1[C@H](O)C[C@@H](O[C@@H]2C[C@H](Oc3cc4cc5c(c(O)c4c(O)c3C)C(=O)[C@@H](O[C@H]3C[C@@H](O[C@H]4C[C@@H](O[C@H]6C[C@](C)(O)[C@@H](OC(C)=O)[C@H](C)O6)[C@H](O)[C@@H](C)O4)[C@H](O)[C@@H](C)O3)[C@H]([C@H](OC)C(=O)[C@@H](O)[C@@H](C)O)C5)O[C@H](C)[C@@H]2OC(C)=O)O[C@@H]1C [chromomycin A3] | + | + | − |  |  | 
N.N.[Cl][Pt][Cl] [cisplatin] | + | + | − |  |  | 
O=P1(N(CCCl)CCCl)NCCCO1 (stereo not drawn) [cyclophosphamido] | + | + | − |  |  | 
Nc1ccn([C@@H]2O[C@H](CO)[C@@H](O)[C@@H]2O)c(=O)n1 [cytarabine] | + | + | − |  |  | 
COc1cccc2c1C(=O)c1c(O)c3c(c(O)c1C2=O)C[C@@](O)(C(C)=O)C[C@@H]3O[C@H]1C[C@H](N)[C@H](O)[C@H](C)O1 [daunorubicin hydrochloride] |  |  |  | + | + | −
CN(C)/N=N/c1[nH]cnc1C(N)=O [decarbazine] | + | + | − |  |  | 
COc1cccc2c1C(=O)c1c(O)c3c(c(O)c1C2=O)C[C@@](O)(C(=O)CO)C[C@@H]3O[C@H]1C[C@H](N)[C@H](O)[C@H](C)O1 [doxorubicin hydrochloride] | + | + | − |  |  | 
CCCCCCCCCCCCCCCCCCCCCC(=O)Nc1ccn([C@@H]2O[C@H](CO)[C@@H](O)[C@@H]2O)c(=O)n1 [enocitabine] | + | ± | − |  |  | 
C[C@]12C[C@H]3S[C@H]3C[C@@H]1CC[C@@H]1[C@@H]2CC[C@]2(C)[C@@H](O)CC[C@@H]12 [epitiostanol] |  |  |  | + | + | −
O=c1[nH]c(=O)n([C@H]2C[C@H](O)[C@@H](CO)O2)cc1F [floxuridine] | + | + | − |  |  | 
O=c1[nH]cc(F)c(=O)[nH]1 [fluorouracil] | + | + | − |  |  | 
O=P1(NCCCl)OCCCN1CCCl (stereo not drawn) [ifosfamide] |  |  |  | + | + | −
